Like-named read-outs stand apart in the source and are kept apart here. Each block holds one compound with its values, some of them ahead of it.
Tests used:
[1] = target: FGFR1 (Homo sapiens, UniProt P11362); experiment: FGFR1 kinase inhibition (IC50); format: biochemical
[2] = target: FGFR2 (Homo sapiens, UniProt P21802); experiment: FGFR2 kinase inhibition (IC50); format: biochemical
[3] = target: FGFR3 (Homo sapiens, UniProt P22607); experiment: FGFR3 kinase inhibition (IC50); format: biochemical
Chain of FGFR3 (P22607 23-806): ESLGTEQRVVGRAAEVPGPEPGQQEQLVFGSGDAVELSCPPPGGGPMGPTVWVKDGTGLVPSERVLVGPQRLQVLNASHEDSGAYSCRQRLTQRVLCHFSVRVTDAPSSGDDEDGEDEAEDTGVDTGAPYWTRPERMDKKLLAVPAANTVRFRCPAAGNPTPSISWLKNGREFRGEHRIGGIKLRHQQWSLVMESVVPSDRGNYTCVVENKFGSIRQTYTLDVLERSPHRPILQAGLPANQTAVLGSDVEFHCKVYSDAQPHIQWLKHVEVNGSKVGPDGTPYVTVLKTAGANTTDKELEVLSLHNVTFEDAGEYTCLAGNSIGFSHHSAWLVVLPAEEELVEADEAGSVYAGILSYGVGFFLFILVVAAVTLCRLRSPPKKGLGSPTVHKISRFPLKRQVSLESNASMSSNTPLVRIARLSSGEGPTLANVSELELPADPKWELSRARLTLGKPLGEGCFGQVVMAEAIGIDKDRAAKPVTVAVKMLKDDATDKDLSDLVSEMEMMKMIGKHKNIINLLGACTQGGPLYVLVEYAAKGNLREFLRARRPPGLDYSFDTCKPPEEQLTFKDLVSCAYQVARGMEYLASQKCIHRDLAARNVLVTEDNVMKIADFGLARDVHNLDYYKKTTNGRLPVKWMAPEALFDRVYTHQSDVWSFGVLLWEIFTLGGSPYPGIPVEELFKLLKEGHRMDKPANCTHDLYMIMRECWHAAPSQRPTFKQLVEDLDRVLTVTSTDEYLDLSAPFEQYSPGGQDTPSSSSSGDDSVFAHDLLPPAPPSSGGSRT

[4] = target: FGFR4 (Homo sapiens, UniProt P22455); experiment: FGFR4 kinase inhibition (IC50); format: biochemical
Chain of FGFR4 (P22455 22-802): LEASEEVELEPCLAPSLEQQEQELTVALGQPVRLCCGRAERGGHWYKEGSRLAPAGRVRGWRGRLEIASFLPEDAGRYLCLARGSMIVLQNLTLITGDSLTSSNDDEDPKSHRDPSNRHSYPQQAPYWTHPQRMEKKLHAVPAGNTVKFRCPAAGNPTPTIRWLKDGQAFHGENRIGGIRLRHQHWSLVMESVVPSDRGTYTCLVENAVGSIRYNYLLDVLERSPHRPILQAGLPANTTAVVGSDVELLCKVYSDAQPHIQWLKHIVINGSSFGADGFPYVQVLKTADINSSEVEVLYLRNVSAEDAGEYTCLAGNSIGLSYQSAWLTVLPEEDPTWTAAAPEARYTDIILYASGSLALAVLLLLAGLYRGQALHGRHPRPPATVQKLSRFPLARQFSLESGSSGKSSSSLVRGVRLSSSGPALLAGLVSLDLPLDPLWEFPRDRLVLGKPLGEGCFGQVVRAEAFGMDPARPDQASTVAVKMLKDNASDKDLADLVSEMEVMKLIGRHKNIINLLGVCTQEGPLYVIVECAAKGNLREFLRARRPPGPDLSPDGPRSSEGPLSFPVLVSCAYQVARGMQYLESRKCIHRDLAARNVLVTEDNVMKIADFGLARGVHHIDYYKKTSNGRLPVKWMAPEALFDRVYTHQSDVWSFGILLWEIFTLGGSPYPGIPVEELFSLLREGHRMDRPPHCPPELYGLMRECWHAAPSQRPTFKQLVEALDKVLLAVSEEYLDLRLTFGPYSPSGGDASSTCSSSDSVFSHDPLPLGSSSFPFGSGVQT

[5] = MDCK permeability; format: in vitro ADME; conditions: dog
[6] = Protein binding; format: in vitro ADME
[7] = test system: Hepatocyte; experiment: Mouse hepatocyte clearance; format: in vitro ADME; conditions: mouse hepatocytes; value ± SE
[8] = Mouse plasma stability; format: in vitro ADME; conditions: value ± SE, read-out: Ms Plasma Stability t1/2 (SE)
[9] = Pharmacokinetics in mice (IP, IV, PO); format: in vivo; conditions: for clearance / half-life / Vd / bioavailability / AUC(0-inf) / AUC(0-t) / Cmax / MRT inf / MRT last / Tmax: in vivo, mouse; for Vd: read-out: Vss
Protocol: FIG. 2A is the pharmacokinetic data of compound 1 administered by intraperitoneal injection (IP) into mice at 10 mg/kg, according to some embodiments of the present disclosure;
FIG. 2B is the pharmacokinetic data of compound 1 administered by intravenous injection (IV) into mice at 1 mg/kg and per os (PO) at 5 mg/kg, according to some embodiments of the present disclosure;

[10] = Solubility in 5% DMSO and 95% of (20% HPBC in PBS); format: physicochemical
Excerpt: The inventive compound 1 improves the FGFR4-selective inhibitory effect.

[11] = Pharmacokinetics in mice (IP, IV, PO); conditions: mouse, in vivo, PO 100 mg/kg
[12] = read-out: FGFR1 Inhibition (IC50 class)
[13] = read-out: FGFR2 Inhibition (IC50 class)
[14] = read-out: FGFR3 Inhibition (IC50 class)
[15] = read-out: FGFR4 inhibition (IC50 class)

Chain of FGFR1 (P11362 22-822): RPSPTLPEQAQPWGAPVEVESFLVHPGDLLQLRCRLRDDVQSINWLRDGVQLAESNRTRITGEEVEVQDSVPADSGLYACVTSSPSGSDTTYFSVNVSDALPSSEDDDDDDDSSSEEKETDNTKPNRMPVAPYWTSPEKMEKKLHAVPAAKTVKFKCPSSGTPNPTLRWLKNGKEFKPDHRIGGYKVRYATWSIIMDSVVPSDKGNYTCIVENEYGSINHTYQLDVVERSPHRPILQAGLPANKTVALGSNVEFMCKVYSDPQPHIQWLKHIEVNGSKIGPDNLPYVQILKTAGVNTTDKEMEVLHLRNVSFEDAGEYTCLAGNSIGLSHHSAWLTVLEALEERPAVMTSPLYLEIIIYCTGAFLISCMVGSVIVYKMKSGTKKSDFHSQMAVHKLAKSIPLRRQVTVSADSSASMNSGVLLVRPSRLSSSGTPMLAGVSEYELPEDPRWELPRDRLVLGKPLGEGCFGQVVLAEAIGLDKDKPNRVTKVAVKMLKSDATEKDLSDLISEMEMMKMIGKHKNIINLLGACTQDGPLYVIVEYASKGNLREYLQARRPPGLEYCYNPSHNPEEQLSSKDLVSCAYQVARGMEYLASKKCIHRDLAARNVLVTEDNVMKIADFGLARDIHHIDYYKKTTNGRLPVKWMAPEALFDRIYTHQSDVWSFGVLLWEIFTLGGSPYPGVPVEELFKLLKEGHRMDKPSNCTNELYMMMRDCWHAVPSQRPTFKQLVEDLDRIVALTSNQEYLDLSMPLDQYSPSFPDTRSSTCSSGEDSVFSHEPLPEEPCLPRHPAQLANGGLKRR
Chain of FGFR2 (P21802 22-821): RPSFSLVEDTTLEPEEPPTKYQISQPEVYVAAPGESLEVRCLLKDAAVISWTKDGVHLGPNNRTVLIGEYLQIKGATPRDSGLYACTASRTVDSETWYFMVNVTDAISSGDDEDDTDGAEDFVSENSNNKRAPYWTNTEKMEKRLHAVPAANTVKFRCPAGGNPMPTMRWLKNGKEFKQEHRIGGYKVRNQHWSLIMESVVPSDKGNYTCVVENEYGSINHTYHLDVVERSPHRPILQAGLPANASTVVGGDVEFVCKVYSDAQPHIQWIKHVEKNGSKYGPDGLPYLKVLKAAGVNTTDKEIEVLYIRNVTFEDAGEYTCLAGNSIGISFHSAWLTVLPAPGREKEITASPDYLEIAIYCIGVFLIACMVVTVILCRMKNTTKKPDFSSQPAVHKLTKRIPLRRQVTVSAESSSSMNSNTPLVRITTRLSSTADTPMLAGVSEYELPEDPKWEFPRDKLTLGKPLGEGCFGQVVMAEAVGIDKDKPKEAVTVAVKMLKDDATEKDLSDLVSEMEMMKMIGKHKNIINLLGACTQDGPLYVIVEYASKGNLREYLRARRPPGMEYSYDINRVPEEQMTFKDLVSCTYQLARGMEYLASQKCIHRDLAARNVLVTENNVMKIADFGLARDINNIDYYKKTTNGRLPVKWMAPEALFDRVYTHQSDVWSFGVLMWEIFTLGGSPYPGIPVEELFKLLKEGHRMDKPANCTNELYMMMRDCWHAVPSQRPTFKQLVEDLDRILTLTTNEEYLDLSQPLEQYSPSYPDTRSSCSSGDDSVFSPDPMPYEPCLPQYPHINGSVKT

SMILES: C=CC(=O)N[C@H]1CC[C@H]1Nc1cc(-c2cccnc2Nc2c(Cl)c(OC)cc(OC)c2Cl)ncn1 [Compound 3]
IC50 [4, 15]: 100 to 1000 nM

SMILES: C=CC(=O)Nc1cc(OC2CN(C)C2)ccc1Nc1cc(-c2cccnc2Nc2c(Cl)c(OC)cc(OC)c2Cl)ncn1 [Compound 6, N-[2-[[6-[2-(2,6-dichloro-3,5-dimethoxy-anilino)-3-pyridyl]pyrimidin-4-yl]amino]-5-(1-methylazetidin-3-yl)oxy-phenyl]prop-2-enamide]
IC50 [1, 12]: 100 to 1000 nM
IC50 [2, 13]: 100 to 1000 nM
IC50 [3, 14]: ≥ 1000 nM
IC50 [4, 15]: ≤ 10 nM

SMILES: C=CC(=O)Nc1cc(OC2CCN(C)CC2)ccc1Nc1cc(-c2cccnc2Nc2c(Cl)c(OC)cc(OC)c2Cl)ncn1 [Compound 8, N-[2-[[6-[2-(2,6-dichloro-3,5-dimethoxy-anilino)-3-pyridyl]pyrimidin-4-yl]amino]-5-[(1-methyl-4-piperidyl)oxy]phenyl]prop-2-enamide]
IC50 [1, 12]: ≥ 1000 nM
IC50 [2, 13]: 100 to 1000 nM
IC50 [3, 14]: ≥ 1000 nM
IC50 [4, 15]: ≤ 10 nM

SMILES: C=CC(=O)N[C@H]1COC[C@H]1Nc1cc(-c2cccnc2Nc2c(Cl)c(OC)cc(OC)c2Cl)ncn1 [Compound 1]
IC50 [1, 12]: ≥ 1000 nM
IC50 ([1]; read-out: IC50 towards FGFR1): 1280 nM
IC50 [2, 13]: ≥ 1000 nM
IC50 ([2]; read-out: IC50 towards FGFR2): 1870 nM
IC50 [3, 14]: ≥ 1000 nM
IC50 ([3]; read-out: IC50 towards FGFR3): 4440 nM
IC50 [4, 15]: 10 to 100 nM
IC50 ([4]; read-out: IC50 towards FGFR4): 20 nM
Papp A→B [5]: 25.8 ×10⁻⁶ cm/s
fraction unbound [6]: 0.08
Hepatocyte Clin Ms (SE) [7]: 43.6 ± 1.3 µL/min/1e6 cells
half-life [8]: 19.1 ± 5.78 h
clearance ([9]; intravenous, Table 2 summary): 26.7 mL/min/kg
half-life ([9]; intravenous, Table 2 summary): 0.52 h
Vd ([9]; intravenous, Table 2 summary): 0.88 L/kg
bioavailability ([9]; oral, Table 2 summary): 20.9%
AUC(0-inf) ([9]; mice, IP 10 mg/kg): 9610 ng·h/mL
AUC(0-t) ([9]; mice, IP 10 mg/kg): 9610 ng·h/mL
Cmax ([9]; mice, IP 10 mg/kg): 14900 ng/mL
MRT inf ([9]; mice, IP 10 mg/kg): 0.67 h
MRT last ([9]; mice, IP 10 mg/kg): 0.67 h
Tmax ([9]; mice, IP 10 mg/kg): 0.25 h
half-life ([9]; mice, IP 10 mg/kg): 2.81 h
AUC(0-inf) ([9]; mice, IV 1 mg/kg): 621 ng·h/mL
AUC(0-t) ([9]; mice, IV 1 mg/kg): 618 ng·h/mL
Cmax ([9]; mice, IV 1 mg/kg): 849 ng/mL
MRT inf ([9]; mice, IV 1 mg/kg): 0.537 h
MRT last ([9]; mice, IV 1 mg/kg): 0.515 h
Tmax ([9]; mice, IV 1 mg/kg): 0.083 h
clearance ([9]; mice, IV 1 mg/kg): 27.2 mL/min/kg
half-life ([9]; mice, IV 1 mg/kg): 0.522 h
Vd ([9]; mice, IV 1 mg/kg): 0.876 L/kg
AUC(0-inf) ([9]; mice, PO 5 mg/kg): 648 ng·h/mL
AUC(0-t) ([9]; mice, PO 5 mg/kg): 465 ng·h/mL
Cmax ([9]; mice, PO 5 mg/kg): 119 ng/mL
MRT inf ([9]; mice, PO 5 mg/kg): 4.02 h
MRT last ([9]; mice, PO 5 mg/kg): 3.42 h
Tmax ([9]; mice, PO 5 mg/kg): 3.17 h
bioavailability ([9]; mice, PO 5 mg/kg): 20.9%
half-life ([9]; mice, PO 5 mg/kg): 2.73 h
solubility [10]: much-improved solubility

SMILES: C=CC(=O)Nc1cc(OCC2CN(C)C2)ccc1Nc1cc(-c2cccnc2Nc2c(Cl)c(OC)cc(OC)c2Cl)ncn1 [Compound 7, N-[2-[[6-[2-(2,6-dichloro-3,5-dimethoxy-anilino)-3-pyridyl]pyrimidin-4-yl]amino]-5-[(1-methylazetidin-3-yl)methoxy]phenyl]prop-2-enamide]
IC50 [1, 12]: 100 to 1000 nM
IC50 [2, 13]: 100 to 1000 nM
IC50 [3, 14]: ≥ 1000 nM
IC50 [4, 15]: ≤ 10 nM

SMILES: C=CC(=O)Nc1cc(OC2CCN(C)C2)ccc1Nc1cc(-c2cccnc2Nc2c(Cl)c(OC)cc(OC)c2Cl)ncn1 (centres unmarked) [Compound 9, N-[2-[[6-[2-(2,6-dichloro-3,5-dimethoxy-anilino)-3-pyridyl]pyrimidin-4-yl]amino]-5-(1-methylpyrrolidin-3-yl)oxy-phenyl]prop-2-enamide]
IC50 [1, 12]: 100 to 1000 nM
IC50 [2, 13]: 100 to 1000 nM
IC50 [3, 14]: ≥ 1000 nM
IC50 [4, 15]: ≤ 10 nM

SMILES: C=CC(=O)Nc1cccc(C)c1Nc1cc(-c2cccnc2Nc2c(Cl)c(OC)cc(OC)c2Cl)ncn1 [Compound 5, N-(2-((6-(2-((2,6-dichloro-3,5-dimethoxyphenyl)amino)pyridin-3-yl)pyrimidin-4-yl)amino)-3-methylphenyl)acrylamide, reference compound]
Papp A→B [5]: 11.4 ×10⁻⁶ cm/s
Hepatocyte Clin Ms (SE) [7]: 41.7 ± 1.73 µL/min/1e6 cells
half-life [8]: 3.69 ± 0.928 h
clearance ([9]; intravenous, Table 2 summary): 14 mL/min/kg
half-life ([9]; intravenous, Table 2 summary): 15 h
bioavailability ([9]; oral, Table 2 summary): 8%
T1/2 ([9]; mice, IP 10 mg/kg): 1.23 h
AUC(0-inf) ([9]; mice, IP 10 mg/kg): 1280 ng·h/mL
AUC(0-t) ([9]; mice, IP 10 mg/kg): 1270 ng·h/mL
Cmax ([9]; mice, IP 10 mg/kg): 865 ng/mL
MRT inf ([9]; mice, IP 10 mg/kg): 1.66 h
MRT last ([9]; mice, IP 10 mg/kg): 1.57 h
Tmax ([9]; mice, IP 10 mg/kg): 0.25 h
AUC(0-inf) ([9]; mice, IV 5 mg/kg): 1240 ng·h/mL
AUC(0-t) ([9]; mice, IV 5 mg/kg): 896 ng·h/mL
Cmax ([9]; mice, IV 5 mg/kg): 470 ng/mL
MRT inf ([9]; mice, IV 5 mg/kg): 18.5 h
MRT last ([9]; mice, IV 5 mg/kg): 7.71 h
Tmax ([9]; mice, IV 5 mg/kg): 0.083 h
clearance ([9]; mice, IV 5 mg/kg): 13.9 mL/min/kg
half-life ([9]; mice, IV 5 mg/kg): 15.1 h
Vd ([9]; mice, IV 5 mg/kg): 15.3 L/kg
Cmax ([9]; mice, PO 100 mg/kg): 180 ng/mL
MRT last ([9]; mice, PO 100 mg/kg): 6.1 h
solubility [10]: poor solubility
AUC(0-t) [11]: 1450 ng·h/mL
Tmax [11]: 6.67 h
bioavailability [11]: 8.09%

SMILES: C=CC(=O)NC1CC1Nc1cc(-c2cccnc2Nc2c(Cl)c(OC)cc(OC)c2Cl)ncn1 (centres unmarked) [Compound 2]
IC50 [1, 12]: 10 to 100 nM
IC50 [2, 13]: 100 to 1000 nM
IC50 [3, 14]: 100 to 1000 nM
IC50 [4, 15]: ≤ 10 nM

SMILES: C=CC(=O)N[C@H]1CCOC[C@H]1Nc1cc(-c2cccnc2Nc2c(Cl)c(OC)cc(OC)c2Cl)ncn1 [Compound 4]
IC50 [4, 15]: 10 to 100 nM

More lines, now with the values ahead:

IC50 [1, 12]: 100 to 1000 nM
IC50 [2, 13]: 100 to 1000 nM
IC50 [3, 14]: ≥ 1000 nM
IC50 [4, 15]: ≤ 10 nM
SMILES: C=CC(=O)Nc1cc(OCCN2CCCC2)ccc1Nc1cc(-c2cccnc2Nc2c(Cl)c(OC)cc(OC)c2Cl)ncn1 [Compound 12, N-[2-[[6-[2-(2,6-dichloro-3,5-dimethoxy-anilino)-3-pyridyl]pyrimidin-4-yl]amino]-5-(2-pyrrolidin-1-ylethoxy)phenyl]prop-2-enamide]

IC50 [1, 12]: ≥ 1000 nM
IC50 [2, 13]: ≥ 1000 nM
IC50 [3, 14]: ≥ 1000 nM
IC50 [4, 15]: ≤ 10 nM
SMILES: C=CC(=O)Nc1cc(OCCN(C)C)ccc1Nc1cc(-c2cccnc2Nc2c(Cl)c(OC)cc(OC)c2Cl)ncn1 [Compound 14]

IC50 [1, 12]: ≥ 1000 nM
IC50 [2, 13]: ≥ 1000 nM
IC50 [3, 14]: ≥ 1000 nM
IC50 [4, 15]: ≤ 10 nM
SMILES: C=CC(=O)Nc1cc(OC2COC2)ccc1Nc1cc(-c2cccnc2Nc2c(Cl)c(OC)cc(OC)c2Cl)ncn1 [Compound 11, N-[2-[[6-[2-(2,6-dichloro-3,5-dimethoxy-anilino)-3-pyridyl]pyrimidin-4-yl]amino]-5-(oxetan-3-yloxy)phenyl]prop-2-enamide]

IC50 [1, 12]: ≥ 1000 nM
IC50 [2, 13]: ≥ 1000 nM
IC50 [3, 14]: ≥ 1000 nM
IC50 [4, 15]: ≤ 10 nM
SMILES: C=CC(=O)Nc1cc(OC2CCOC2)ccc1Nc1cc(-c2cccnc2Nc2c(Cl)c(OC)cc(OC)c2Cl)ncn1 (centres unmarked) [Compound 10, N-[2-[[6-[2-(2,6-dichloro-3,5-dimethoxy-anilino)-3-pyridyl]pyrimidin-4-yl]amino]-5-tetrahydrofuran-3-yloxy-phenyl]prop-2-enamide]

IC50 [4, 15]: ≥ 1000 nM
SMILES: C=CC(=O)Nc1ncn(C)c1Nc1cc(-c2cccnc2Nc2c(Cl)c(OC)cc(OC)c2Cl)ncn1 [Compound 13, N-[5-[[6-[2-(2,6-dichloro-3,5-dimethoxy-anilino)-3-pyridyl]pyrimidin-4-yl]amino]-1-methyl-imidazol-4-yl]prop-2-enamide]

IC50 [1, 12]: ≥ 1000 nM
IC50 [2, 13]: ≥ 1000 nM
IC50 [3, 14]: ≥ 1000 nM
IC50 [4, 15]: ≤ 10 nM
SMILES: C=CC(=O)Nc1cc(OCCN(CC)CC)ccc1Nc1cc(-c2cccnc2Nc2c(Cl)c(OC)cc(OC)c2Cl)ncn1 [Compound 15]

IC50 [4, 15]: 100 to 1000 nM
SMILES: C=CC(=O)N[C@H]1CCC[C@H]1Nc1cc(-c2cccnc2Nc2c(Cl)c(OC)cc(OC)c2Cl)ncn1 (single isomer, unassigned) [Compound 16, N-[cis-2-[[6-[2-(2,6-dichloro-3,5-dimethoxy-anilino)-3-pyridyl]pyrimidin-4-yl]amino]cyclopentyl]prop-2-enamide]

Source: patent publication US12409177B2, “FGFR inhibitors for the treatment of cancer” (BridGene Biosciences, Inc., priority 2019, dated 2025)
